Measurements: US20260294915A1, “COMBINATION THERAPY COMPRISING A MAT2A INHIBITOR AND A TOPOISOMERASE INHIBITOR, A SPLICING INHIBITOR SULFONAMIDE, OR A KIF18 INHIBITOR” (IDEAYA BIOSCIENCES, INC., priority 2023, published 2026)
pIC50: −log10 of the molar value.

Key:
Assay type in all cases: cell-based
NCI-H520 = test: 10-day proliferation (CTG), equimolar Compound A + Compound B (Example 1); details: Homo sapiens, NCI-H520, 240 h, 10 days, single agent or 1:1 combo; for IC30: read-out: gIC30; for IC40: read-out: gIC40; for pIC50: read-out: gIC50; for IC60: read-out: gIC60; for IC70: read-out: gIC70; for IC80: read-out: gIC80; for IC90: read-out: gIC90; for IC100: read-out: gIC100
Method: (§1) A 10-day proliferation assay was performed in a panel of 5 MTAP-deficient and 2 wild type non-small cell lung and bladder cancer cell lines. Optimal cell seeding for all cell lines was determined by assessing the growth over a range of seeding densities in a 384-well format to identify conditions that permitted proliferation for 10 days. Cells were then plated at the optimal seeding density and treated with 20-point, two-fold dilution series of Compound A, sovilnesib (“Compound B”), or an equimolar combination of Compound A and Compound B. Concentrations tested for Compound A and Compound B alone or in combination ranged from 0.038 nM to 20,000 nM. A plate of cells was harvested at the time of compound addition to quantify the number of cells at the start of the combination (T0). For cell quantification, the harvested cells were lysed with Promega CellTiter-Glo (CTG) reagent according to the manufacturer's protocol and the chemiluminescent signal was detected on a Synergy Neo plate reader. CTG estimates cell number through detection of cellular ATP levels. Cells were incubated with the drug combinations at 37° C. with 5% CO2 for 10 days. Cells were then lysed with CTG and the chemiluminescent signal was measured.
(§2) CTG values obtained after the 10-day treatment were background subtracted and expressed as a percent of the T0 value. Data were plotted against compound concentration and fit with a four-parameter equation to generate dose response curves for each single agent and the equimolar combination. Growth ICx (gICx) values ranging from gIC30 to gIC100 were interpolated from the fitted curves. Synergistic growth inhibition was assessed by determination of Combination Index (CI) values at these various points across the titration using the mutually non-exclusive equation [Chou, 1983; Chou, 1981] shown below where A equals the gIC value of Compound A, B equals the gICx value of Compound B, and A+B or B+A equals the gICx value of the equimolar combination. A Combination Index value less than 1.0 was considered synergistic.
(§3) Synergy was measured for equimolar combinations of Compound A and Compound B utilizing the mutually non-exclusive Combination Index equation across gICx values ranging from gIC30-gIC100. Combination Index values are shown for: NCI-H520 (4A) and TCCSUP (41B).

TCCSUP = test: as above; details: Homo sapiens, TCC-SUP, 240 h, 10 days, single agent or 1:1 combo; for IC100: read-out: gIC100, heading: gIC100; for IC30: read-out: gIC30; for IC40: read-out: gIC40; for pIC50: read-out: gIC50; for IC60: read-out: gIC60; for IC70: read-out: gIC70; for IC80: read-out: gIC80; for IC90: read-out: gIC90
Method: as §1, §2, §3

NCI-H838 = test: 10-day proliferation (CTG), Compound B titration + 1000 nM Compound A, Bliss (Example 2); parameters: key: GDI, -100 to 100; 0 = cell number at T0
Method: (§4) A 10-day proliferation assay was performed in a panel of 5 MTAP-deficient and 2 wild type non-small cell lung and bladder cancer cell lines. Optimal cell seeding for all cell lines was determined by assessing the growth over a range of seeding densities in a 384-well format to identify conditions that permitted proliferation for 10 days. Cells were then plated at the optimal seeding density and treated with 20-point, two-fold dilution series of Compound B in combination with a 1000 nM fixed concentration of Compound A. Single agent titrations for Compound A and Compound B were included for comparison. Concentrations tested for Compound A and Compound B alone or in combination ranged from 0.038 nM to 20,000 nM. A plate of cells was harvested at the time of compound addition to quantify the number of cells at the start of the combination (T0). For cell quantification, the harvested cells were lysed with Promega CellTiter-Glo (CTG) reagent according to the manufacturer's protocol and the chemiluminescent signal was detected as described in Example 1 above. Cells were incubated with the drug combinations at 37° C. with 5% CO2 for 10 days. Cells were then lysed with CTG and the chemiluminescent signal was measured.
(§5) CTG values obtained after the 10-day treatment were background subtracted and expressed as a percent of the T0 value set at 100%. Data were plotted against compound concentration and fit with a four-parameter equation to generate single agent dose response curves. Percent inhibition was determined for each combination and single agent concentration compared to a DMSO control. In addition, the overall net growth or death of the cells was calculated and reported as a growth death index (GDI) value on a scale of −100 to 100 with the midpoint (0) being the number of cells at the beginning of the combination (T0).
(§6) Predicted inhibition was calculated using (Ea+Eb)−(Ea*Eb) where E equals the effect (inhibition) of each single agent (a and b). A difference between the observed inhibition percentage and the predicted inhibition percentage greater than 10% was considered synergistic. A Bliss score was only calculated for combinations eliciting >20% growth inhibition (GDI value <80). Since Bliss is calculated based on growth inhibition, scores within cytotoxic dose ranges may not accurately reflect synergistic cytotoxicity.
(§7) Synergy was measured across the Compound B titration with 1000 nM Compound A by Bliss Independence analysis. Bliss scores >10 are indicated by “*” and are considered synergistic. […] Synergy as reported using Bliss may be underrepresented within cytotoxic dose ranges. Growth death index values are shown for the combination titration and each single agent Compound A (Cmpd A) and Compound B (Cmpd B) on a scale of −100 to 100 with the midpoint (0) being the number of cells at the beginning of the combination (T0).

RT112/84 = test: as above; parameters: key: GDI, -100 to 100; 0 = cell number at T0
Method: as §4, §5, §6, §7

UMUC5 = test: as above; parameters: key to GDI: GDI, -100 to 100; 0 = cell number at T0
Method: as §4, §5, §6, §7

[1] = Cmpd B 0.04 nM, combo: + 1000 nM Cmpd A
[2] = Cmpd B 0.1 nM, combo: + 1000 nM Cmpd A
[3] = Cmpd B 0.2 nM, combo: + 1000 nM Cmpd A
[4] = Cmpd B 0.3 nM, combo: + 1000 nM Cmpd A
[5] = Cmpd B 0.6 nM, combo: + 1000 nM Cmpd A
[6] = Cmpd B 1.2 nM, combo: + 1000 nM Cmpd A
[7] = Cmpd B 2.4 nM, combo: + 1000 nM Cmpd A
[8] = Cmpd B 4.9 nM, combo: + 1000 nM Cmpd A
[9] = Cmpd B 9.8 nM, combo: + 1000 nM Cmpd A
[10] = Cmpd B 19.5 nM, combo: + 1000 nM Cmpd A
[11] = Cmpd B 39.1 nM, combo: + 1000 nM Cmpd A
[12] = Cmpd B 78.1 nM, combo: + 1000 nM Cmpd A
[13] = Cmpd B 156.3 nM, combo: + 1000 nM Cmpd A
[14] = Cmpd B 312.5 nM, combo: + 1000 nM Cmpd A
[15] = Cmpd B 625 nM, combo: + 1000 nM Cmpd A
[16] = Cmpd B 1250 nM, combo: + 1000 nM Cmpd A
[17] = Cmpd B 2500 nM, combo: + 1000 nM Cmpd A
[18] = Cmpd B 5000 nM, combo: + 1000 nM Cmpd A
[19] = Cmpd B 10000 nM, combo: + 1000 nM Cmpd A
[20] = Cmpd B 20000 nM, combo: + 1000 nM Cmpd A

Cc1cc(NC(=O)c2ccc(NS(=O)(=O)CCO)cc2N2CCC3(CC2)CC3)nc(N2CCC(F)(F)CC2)n1 [Compound B, N-(2-(4,4-difluoropiperidin-1-yl)-6-methylpyrimidin-4-yl)-4-((2-hydroxyethyl)sulfonamido)-2-(6-azaspiro[2.5]octan-6-yl)benzamide]
IC30 (NCI-H520): 2.81 µM
IC40 (NCI-H520): 4.16 µM
pIC50 (NCI-H520): 5.24
IC60 (NCI-H520): 7.73 µM
IC70 (NCI-H520): 9.98 µM
IC80 (NCI-H520): 12.5 µM
IC90 (NCI-H520): 15.5 µM
IC100 (NCI-H520): 18.7 µM
IC100 (TCCSUP): > 20 µM
IC30 (TCCSUP): 0.091 µM
IC40 (TCCSUP): 0.107 µM
pIC50 (TCCSUP): 6.90
IC60 (TCCSUP): 0.15 µM
IC70 (TCCSUP): 0.183 µM
IC80 (TCCSUP): 0.24 µM
IC90 (TCCSUP): 0.405 µM
GDI (NCI-H838; [1]): 100
GDI (NCI-H838; [2]): 100
GDI (NCI-H838; [3]): 100
GDI (NCI-H838; [4]): 100
GDI (NCI-H838; [5]): 100
GDI (NCI-H838; [6]): 100
GDI (NCI-H838; [7]): 100
GDI (NCI-H838; [8]): 100
GDI (NCI-H838; [9]): 100
GDI (NCI-H838; [10]): 100
GDI (NCI-H838; [11]): 100
GDI (NCI-H838; [12]): 100
GDI (NCI-H838; [13]): 74
GDI (NCI-H838; [14]): 65
GDI (NCI-H838; [15]): 55
GDI (NCI-H838; [16]): 48
GDI (NCI-H838; [17]): 58
GDI (NCI-H838; [18]): 87
GDI (NCI-H838; [19]): 61
GDI (NCI-H838; [20]): −1
GDI (RT112/84; [1]): 100
GDI (RT112/84; [2]): 100
GDI (RT112/84; [3]): 100
GDI (RT112/84; [4]): 100
GDI (RT112/84; [5]): 100
GDI (RT112/84; [6]): 100
GDI (RT112/84; [7]): 100
GDI (RT112/84; [8]): 100
GDI (RT112/84; [9]): 100
GDI (RT112/84; [10]): 100
GDI (RT112/84; [11]): 100
GDI (RT112/84; [12]): 100
GDI (RT112/84; [13]): 63
GDI (RT112/84; [14]): 30
GDI (RT112/84; [15]): 24
GDI (RT112/84; [16]): 31
GDI (RT112/84; [17]): 31
GDI (RT112/84; [18]): 33
GDI (RT112/84; [19]): 2
GDI (RT112/84; [20]): −86
GDI (UMUC5; [1]): 97
GDI (UMUC5; [2]): 100
GDI (UMUC5; [3]): 100
GDI (UMUC5; [4]): 100
GDI (UMUC5; [5]): 100
GDI (UMUC5; [6]): 96
GDI (UMUC5; [7]): 100
GDI (UMUC5; [8]): 99
GDI (UMUC5; [9]): 100
GDI (UMUC5; [10]): 100
GDI (UMUC5; [11]): 100
GDI (UMUC5; [12]): 100
GDI (UMUC5; [13]): 75
GDI (UMUC5; [14]): 26
GDI (UMUC5; [15]): 17
GDI (UMUC5; [16]): 16
GDI (UMUC5; [17]): 15
GDI (UMUC5; [18]): 5
GDI (UMUC5; [19]): −87
GDI (UMUC5; [20]): −91
single agent dose sufficient to maximally inhibit cell growth (UMUC5; single agent): 5 µM

Nc1nc(=O)n(-c2ccccc2Cl)c2nc(C(F)(F)F)ccc12 [Compound A]
IC30 (NCI-H520): 20 µM
IC40 (NCI-H520): 20 µM
pIC50 (NCI-H520): 4.70
IC60 (NCI-H520): 20 µM
IC70 (NCI-H520): 20 µM
IC80 (NCI-H520): 20 µM
IC90 (NCI-H520): 20 µM
IC100 (NCI-H520): 20 µM
IC100 (TCCSUP): > 20 µM
IC30 (TCCSUP): 20 µM
IC40 (TCCSUP): 20 µM
pIC50 (TCCSUP): 4.70
IC60 (TCCSUP): 20 µM
IC70 (TCCSUP): 20 µM
IC80 (TCCSUP): 20 µM
IC90 (TCCSUP): 20 µM
GDI (NCI-H838; single agent, 1000 nM Cmpd A): 52
GDI (RT112/84; single agent, 1000 nM Cmpd A): 60
GDI (UMUC5; single agent, 1000 nM Cmpd A): 59
